In patent publication US8481524B2, “c-MET protein kinase inhibitors” (Vertex Pharmaceuticals Incorporated, priority 2007, dated 2013) one finds IC50 data, which are given here for twelve compounds.

The test system of this experiment is c-Met in Snu5 gastric carcinoma cells. In words: Inhibition of c-Met activity in Snu5 gastric carcinoma cells (Snu5-AP1-Luc-Pest luciferase signal). Conditions: Homo sapiens, SNU-5; Snu5-AP1-Luc-Pest cells, 6 hours, Steady Glo luminescence. The experiment is classed as cell-based, human. The source says: Compounds of the invention were also screened for their ability to inhibit the Luciferase-induced signal in an engineered Snu5 cell line. Snu5 [obtained from American Type Culture Collection (Catalog number CRL-5973)] is a human gastric carcinoma known to overexpress c-Met, which is constitutively active. The cell line was transduced with the retrovirus, pCLPCX, which contains a genetic construct consisting of 6×AP1 promoter response elements and a luciferase gene having a C-terminal PEST sequence (proteolytic signal from mouse ornithine decarboxylase, which reduces the half-life of the luciferase). The constitutively active cMet activates cellular pathways (principally MAP kinase), resulting in AP-1-induced transcription of luciferase-PEST and translation into the final product, the activity of which is quantifiable as a chemiluminescent readout upon the addition of luciferin (Steady-Glo from Promega.). Residual luminescence is strongly correlated to the inhibition of c-Met. A stable cell line was obtained by selecting the new cell line (Snu5-AP1-Luc-Pest) with puromycin. The cells were grown in complete media [Iscove's media (Invitrogen) containing 10% fetal bovine serum (FBS, Hyclone) and penicillin/gentamycin (Invitrogen)]. Compounds of the invention were dissolved in DMSO to make 10 mM initial stock solutions. Serial dilutions in DMSO were then made and transferred to complete medium to make a 10× solution. The Snu5-AP1-Luc-Pest cells were counted and diluted to 200,000-cells/mL solution. The cells (90 μL) were added to each well in a 96-well black with clear bottom plate (Costar). Then 10 μL of the 10× compound solution was added to the cells in triplicate. The plates were incubated in a 37° C./5% CO2 incubator. After 6 hours, 50 μL of the Steady Glo reagent (Promega) was added to each well and placed on a plate shaker for 5 minutes to ensure that the cells were completely lysed. The plate was read on a 1450 Microbeta Liquid Scintillation and Luminescence Counter (Perkin-Elmer). The IC50s were calculated using a 4-parameter fit using the graphing software Prism (GraphPad).

For orientation: IC50 means the concentration needed to halve the response being measured. High values mean weaker potency, low ones greater potency.

For the compound `Cc1ccc(-n2nnnc2-c2cc(-c3cnn(C4CCNCC4)c3)cnc2N)cc1F` [Compound 43], the IC50 lay in the range of 100 to 1000 nM.

`COc1ccc(-n2nnnc2-c2cc(-c3cn(C4CCCNCC4)nc3C)cnc2N)c(F)c1F` (stereo not drawn) [Compound 44]: the IC50 was at most 100 nM.

Take `Cc1ccc(-n2nnnc2-c2cc(-c3cn(C4CCNCC4)nc3C)cnc2N)c(F)c1F` [Compound 45]: the IC50 was at most 100 nM.

`Cc1ccc(-n2nnnc2-c2cc(-c3cn(C4CCCNCC4)nc3C)cnc2N)c(F)c1F` (stereo not drawn) [Compound 46] displayed a half-inhibitory concentration (IC50) of at most 100 nM.

For `Cc1ccc(-n2nnnc2-c2cc(-c3cn(C4CCNCC4)nc3C(F)(F)F)cnc2N)c(F)c1F` [Compound 47], the half-inhibitory concentration (IC50) is 100 to 1000 nM.

As for `Cc1ccc(-n2nnnc2-c2cc(-c3cnn(C4C[C@H]5CNC[C@H]5C4)c3)cnc2N)c(F)c1F` (stereo partly drawn) [Compound 48], the IC50 fell in the range of 100 to 1000 nM.

Compound `COc1ccc(-n2nnnc2-c2cc(-c3cnn(C4CCNCC4)c3)cnc2N)c(F)c1` [Compound 50] had a 50% inhibitory concentration (IC50) of 100 to 1000 nM.

Compound `COc1ccc(-n2nnnc2-c2cc(-c3cc4c(s3)CCNCC4)cnc2N)c(F)c1` [Compound 51] had a half-maximal inhibitory concentration (IC50) of 100 to 1000 nM.

In the case of `COc1cc(F)c(-n2nnnc2-c2cc(-c3cc4c(s3)CCNCC4)cnc2N)c(F)c1` [Compound 54], the IC50 was 100 to 1000 nM.

For `COCc1ccc(-n2nnnc2-c2cc(-c3cnn(C4CCNCC4)c3)cnc2N)c(F)c1F` [Compound 65], the concentration for half-maximal inhibition (IC50) lay within 100 to 1000 nM.

`COc1ccc(-n2nnnc2-c2cc(-c3cc(C)c(C4CCCNC4)s3)cnc2N)c(F)c1F` (stereo not drawn) [Compound 66] displayed an IC50 of at most 100 nM.

As to `Cc1cc(-c2cnc(N)c(-c3nnnn3-c3ccc(C)c(F)c3F)c2)sc1C1CCCNC1` (stereo not drawn) [Compound 67], the half-maximal inhibitory concentration (IC50) was at most 100 nM.
